Assay results published in patent publication US10041953B2, “Mass spectrometric determination of drug resistance” (priority 2013, dated 2018).
Converted amounts (≈) assume the structure as drawn.

Legend:
Type in all cases: cell-based
[1] = system: salmonella wild type (13471); test: MIC for ciprofloxacin, wild type (13471); conditions: wild type gyrase
Salmonella strain 17109 = test: MIC for ciprofloxacin, Salmonella strain 17109; conditions: Salmonella strain 17109, one gyrase amino acid substitution
Salmonella strain 6836 = test: MIC for ciprofloxacin, Salmonella strain 6836; conditions: Salmonella strain 6836, double gyrase mutation
Salmonella strain 19222 = test: MIC for ciprofloxacin, Salmonella strain 19222; conditions: Salmonella strain 19222, one gyrase amino acid substitution

Compound: O=C(O)c1cn(C2CC2)c2cc(N3CCNCC3)c(F)cc2c1=O [ciprofloxacin]
- MIC [1]: 0.03 µg/mL (≈ 0.0905 µM)
- MIC (Salmonella strain 17109): 1 µg/mL (≈ 3.02 µM)
- MIC (Salmonella strain 6836): 32 µg/mL (≈ 96.6 µM)
- MIC (Salmonella strain 19222): 1 µg/mL (≈ 3.02 µM)
